Starred links: 1 amine or outer side, 2 acyl side, 3 side chain; linkers in the order of their positions; H or OH if unused. Positions of bridges follow the written chain, without caps; N, C: chain ends. Non-standard residues stand in square brackets, D forms with d. Residues, ends and D or L forms follow the SMILES beside them. TATB = O=C(C[*:1])N1CN(C(=O)C[*:2])CN(C(=O)C[*:3])C1; Hyp = O=C(O)[C@@H]1C[C@@H](O)CN1; Tle = CC(C)(C)[C@H](N)C(=O)O
biological target: Human TfR1 (Homo sapiens, UniProt P02786); experiment: biochemical
Sequence (P02786 89-760): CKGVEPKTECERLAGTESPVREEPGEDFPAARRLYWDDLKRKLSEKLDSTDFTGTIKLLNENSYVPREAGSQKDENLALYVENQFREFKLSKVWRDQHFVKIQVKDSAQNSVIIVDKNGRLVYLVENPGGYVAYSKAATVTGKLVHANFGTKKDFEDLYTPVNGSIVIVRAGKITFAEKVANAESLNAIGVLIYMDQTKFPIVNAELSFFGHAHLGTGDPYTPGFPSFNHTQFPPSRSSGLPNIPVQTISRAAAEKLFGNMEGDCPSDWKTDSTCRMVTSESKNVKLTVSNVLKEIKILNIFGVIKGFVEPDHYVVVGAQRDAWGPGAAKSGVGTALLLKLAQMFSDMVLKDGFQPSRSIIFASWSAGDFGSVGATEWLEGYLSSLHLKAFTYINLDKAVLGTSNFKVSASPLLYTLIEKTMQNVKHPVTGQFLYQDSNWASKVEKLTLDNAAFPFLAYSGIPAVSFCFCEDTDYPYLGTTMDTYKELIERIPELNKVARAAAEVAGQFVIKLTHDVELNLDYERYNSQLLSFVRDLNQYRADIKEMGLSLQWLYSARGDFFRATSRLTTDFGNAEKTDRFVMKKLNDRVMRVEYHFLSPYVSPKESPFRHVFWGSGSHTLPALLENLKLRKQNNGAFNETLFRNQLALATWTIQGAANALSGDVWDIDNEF
Description: Recombinant human and cynomolgus TfR1 were received from Bicycle as Hiss-tagged TfR1 (a.a. 89-760) (ACRO Biosystems, CD1-H5243 and TFR-C524a).
For analysis of TfR1 peptide binding, a Biacore T200 or S200 instrument was used utilising a capture/coupling approach with a Cytiva NTA chip at 25° C. with 25 mM HEPES, 0.1M NaCl, 0.05% Tween 20 pH 7.4 as the running buffer. Immobilisation was carried out as follows. The chip was pre-equilibrated with an injection of 500 mM EDTA (pH 8), before activation with 5 mM NiSO4. The surface was then activated using standard amine-coupling chemistry. Briefly, the carboxymethyl dextran surface was activated with a 1:1 ratio of 0.4 M 1-ethyl-3-(3-dimethylaminopropyl) carbodiimide hydrochloride (EDC)/0.1 M N-hydroxy succinimide (NHS). The TfR1 protein (human or cynomolgus) was then captured onto the activated surface after dilution into running buffer to 200 nM and 250 nM respectively. Residual activated groups were blocked with a 7 min injection of 1 M ethanolamine (pH 8.5):HBS-N(1:1). Reference surfaces were activated and blocked as above with no TfR1 protein capture. Capture levels were in the range of 1,500-5,000 RU dependent upon the individual study Buffer was changed to 25 mM HEPES, 0.1M NaCl, 0.05% Tween 20 pH 7.4 1% DMSO.
A dilution series of test peptides was prepared in this buffer with a top peptide concentration of 5 μM and 6 further 2-fold dilutions. The SPR analysis was run at 25° C. at a flow rate of 30 μl/min with 160 seconds association and 700-800 seconds dissociation. Data were corrected for DMSO excluded volume effects. All data were double-referenced for blank injections and reference surface using standard processing procedures and data processing and kinetic fitting were performed using Scrubber software, version 2.0c (BioLogic Software). Data were fitted using simple 1:1 binding model allowing for mass transport effects where appropriate.

| Compound | Kd [nM] |
| --- | --- |
| CC(=O)N[C@H]1CSCC(=O)N2CN3CN(C2)C(=O)CSC[C@@H](C(=O)N[C@@H](CCC(=O)O)C(=O)N2CCC[C@H]2C(=O)N[C@@H](Cc2c[nH]c4ccccc24)C(N)=O)NC(=O)[C@H](Cc2ccc(O)cc2)NC(=O)[C@H](CO)NC(=O)[C@H](C(C)(C)C)NC(=O)[C@H](CSCC3=O)NC(=O)CNC(=O)[C@H](CC(C)C)NC(=O)[C@H](Cc2ccc(O)cc2)NC(=O)[C@H](C)NC(=O)[C@H](CC(=O)O)NC(=O)[C@@H]2C[C@@H](O)CN2C(=O)[C@@H]2C[C@@H](O)CN2C1=O [BCY23180, C[HyP][HyP]DAYLGC[tBuGly]SYCEPW] | 50 |
| CC(=O)N[C@H]1CSCC(=O)N2CN3CN(C2)C(=O)CSC[C@@H](C(=O)N[C@@H](CCC(=O)O)C(=O)N2CCC[C@H]2C(=O)N[C@@H](CCc2ccc(O)cc2)C(N)=O)NC(=O)[C@H](Cc2ccc(O)cc2)NC(=O)[C@H](CO)NC(=O)[C@H](C(C)(C)C)NC(=O)[C@H](CSCC3=O)NC(=O)CNC(=O)[C@H](CC(C)C)NC(=O)[C@H](Cc2ccc(O)cc2)NC(=O)[C@H](C)NC(=O)[C@H](CC(=O)O)NC(=O)[C@@H]2C[C@@H](O)CN2C(=O)[C@@H]2CCCN2C1=O [BCY23211, CP[HyP]DAYLGC[tBuGly]SYCEP[hTyr]] | 7.7 |
| CC(=O)N[C@H]1CSCC(=O)N2CN3CN(C2)C(=O)CSC[C@@H](C(=O)N[C@@H](CCC(=O)O)C(=O)N2CCC[C@H]2C(=O)N[C@@H](Cc2c[nH]c4ccccc24)C(N)=O)NC(=O)[C@H](Cc2ccc(O)cc2)NC(=O)[C@H](CO)NC(=O)[C@H](C(C)(C)C)NC(=O)[C@H](CSCC3=O)NC(=O)CNC(=O)[C@H](CCC(N)=O)NC(=O)[C@H](Cc2ccc(O)cc2)NC(=O)[C@H](C)NC(=O)[C@H](CC(=O)O)NC(=O)[C@@H]2C[C@@H](O)CN2C(=O)[C@@H]2CCCN2C1=O [BCY23223, CP[HyP]DAYQGC[tBuGly]SYCEPW] (Ac-CP[Hyp]DAYQGC[Tle]SYCEPW-NH2; linker 1-9-13 via TATB) | 50 |
| CC(=O)N[C@H]1CSCC(=O)N2CN3CN(C2)C(=O)CSC[C@@H](C(=O)N[C@@H](CCC(=O)O)C(=O)N2CCC[C@H]2C(=O)N[C@@H](Cc2ccc(O)cc2)C(N)=O)NC(=O)[C@H](Cc2ccc(O)cc2)NC(=O)[C@H](CO)NC(=O)[C@H](C(C)(C)C)NC(=O)[C@H](CSCC3=O)NC(=O)CNC(=O)[C@H](CC(C)C)NC(=O)[C@H](Cc2ccc(O)cc2)NC(=O)[C@H](C)NC(=O)[C@H](CC(=O)O)NC(=O)[C@@H]2C[C@@H](O)CN2C(=O)[C@@H]2CCCN2C1=O [BCY23207, CP[HyP]DAYLGC[tBuGly]SYCEPY] | 7.7 |
